Experimental data from ChEMBL document CHEMBL4400510, “Synthesis and antitubercular evaluation of reduced lipophilic imidazo[1,2-a]pyridine-3-carboxamide derivatives” (Eur J Med Chem, 2019).
≈ marks a conversion by molar mass, not a printed value.

Key:
[1] = test system: Mycobacterium tuberculosis; test: Antitubercular activity against Mycobacterium tuberculosis H37Rv after 7 days by MABA method; format: functional; conditions: 168 h
[2] = Tmax in ICR mouse at 25 mg/kg, po by HPLC analysis; format: ADME, organism-based; conditions: in vivo
[3] = Cmax in ICR mouse at 25 mg/kg, po by HPLC analysis; format: ADME, organism-based; parameters: dose 25 mg/kg, route oral; conditions: in vivo
[4] = Half life in ICR mouse at 25 mg/kg, po by HPLC analysis; format: ADME, organism-based; conditions: in vivo
[5] = Cytotoxicity against African green monkey Vero cells measured after 72 hrs by MTT assay; format: cell-based; conditions: chlorocebus sabaeus
[6] = Aqueous solubility of the compound in 0.01 M HCl at pH 2 after 12 hrs by UV-based HPLC analysis; format: physicochemical
[7] = AUC (0 to infinity) in ICR mouse at 25 mg/kg, po by HPLC analysis; format: ADME, organism-based; parameters: dose 25 mg/kg, route oral, time infinity; conditions: in vivo

Which MIC90 [1] does the source give for `CCc1nc2ccc(Cl)cn2c1C(=O)NCc1ccc(N2CCN(Cc3ccc(OC(F)(F)F)cc3)CC2)cc1` here?
Its MIC90 is < 0.035 µM.

With `CCc1nc2ccc(Cl)cn2c1C(=O)NCc1ccc(N2CC3CN(CC4CCCCC4)CC3C2)cc1` (configuration not stated) as the molecule, how does the Tmax [2] read?
The Tmax was 0.25 h.

And the Cmax [3]?
The Cmax was 4180 ng/mL.

And the half-life [4]?
The half-life was 4.27 h.

And the MIC90 [1]?
Its MIC90 is < 0.035 µM.

What about the CC50 at 72 h [5] of the same molecule?
The CC50 at 72 h was > 100 µM.

And the solubility at 12 h [6]?
The solubility at 12 h was 628 µg/mL (≈ 1210 µM).

What about the AUC(0-inf) [7] of the same molecule?
Its AUC(0-inf) is 9050 ng·h/mL.

With `CCc1nc2ccc(Cl)cn2c1C(=O)NCc1ccc(N2CC3CN(c4ccc(OC(F)(F)F)cc4)CC3C2)cc1` (configuration not stated) as the molecule, how does the MIC90 [1] read?
The MIC90 was 0.058 µM (≈ 0.0339 µg/mL).

Which results are given for `CCc1nc2ccc(Cl)cn2c1C(=O)NCc1ccc(N2CC3CN(Cc4ccc(OC(F)(F)F)cc4)CC3C2)cc1` (configuration not stated)?
Tmax [2]: 0.83 h; Cmax [3]: 2670 ng/mL; half-life [4]: 5.23 h; MIC90 [1]: < 0.035 µM; CC50 at 72 h [5]: 20.5 µM; solubility at 12 h [6]: 1130 µg/mL (≈ 1880 µM); AUC(0-inf) [7]: 19800 ng·h/mL

Which Tmax [2] does the source give for `CCc1nc2ccc(Cl)cn2c1C(=O)NCc1ccc(N2CCC3(CC2)CCN(c2ccc(OC(F)(F)F)cc2)CC3)cc1` here?
The Tmax was 2.67 h.

And the Cmax [3]?
The Cmax was 7420 ng/mL.

And the half-life [4]?
The half-life was 12.3 h.

And the MIC90 [1]?
The MIC90 was < 0.035 µM.

What about the CC50 at 72 h [5] of the same molecule?
The CC50 at 72 h was 70.2 µM.

And the solubility at 12 h [6]?
The solubility at 12 h was 1110 µg/mL (≈ 1770 µM).

What about the AUC(0-inf) [7] of the same molecule?
The AUC(0-inf) was 153000 ng·h/mL.

For `CCc1nc2ccc(Cl)cn2c1C(=O)NCc1ccc(N2CC3CCC2CN3CC2CCCCC2)cc1` (configuration not stated), which MIC90 [1] is on record?
Its MIC90 is 0.062 µM (≈ 0.0322 µg/mL).

Which MIC90 [1] does the source give for `CCc1nc2ccc(Cl)cn2c1C(=O)NCc1ccc(N2CCN(CCC3CCCCC3)CC2)cc1` here?
Its MIC90 is 0.103 µM (≈ 0.0523 µg/mL).

Which Tmax [2] does the source give for `CCc1nc2ccc(Cl)cn2c1C(=O)NCc1ccc(N2CCN(CC3CCCCC3)CC2)cc1` here?
Its Tmax is 0.25 h.

And the Cmax [3]?
Its Cmax is 24100 ng/mL.

What about the half-life [4] of the same molecule?
The half-life was 2.75 h.

What about the MIC90 [1] of the same molecule?
The MIC90 was < 0.035 µM.

And the CC50 at 72 h [5]?
Its CC50 at 72 h is 53.5 µM.

And the solubility at 12 h [6]?
Its solubility at 12 h is 1230 µg/mL (≈ 2500 µM).

And the AUC(0-inf) [7]?
The AUC(0-inf) was 53800 ng·h/mL.

For `CCc1nc2cc(Cl)ccn2c1C(=O)NCc1ccc(N2CC3CC2CN3CC2CCCCC2)cc1` (configuration not stated), which MIC90 [1] is on record?
Its MIC90 is 1.27 µM (≈ 0.641 µg/mL).

Which MIC90 [1] does the source give for `CCc1nc2cc(Cl)ccn2c1C(=O)NCc1ccc(N2CC3CCC2CN3CC2CCCCC2)cc1` (configuration not stated) here?
The MIC90 was 1.48 µM (≈ 0.769 µg/mL).

With `CCc1nc2cc(Cl)ccn2c1C(=O)NCc1ccc(N2CCN(CCC3CCCCC3)CC2)cc1` as the molecule, how does the MIC90 [1] read?
Its MIC90 is 1.59 µM (≈ 0.81 µg/mL).

Which MIC90 [1] does the source give for `CCc1nc2cc(Cl)ccn2c1C(=O)NCc1ccc(N2CCN(CC3CCCCC3)CC2)cc1` here?
The MIC90 was 0.84 µM (≈ 0.415 µg/mL).

With `CCc1nc2ccc(Cl)cn2c1C(=O)NCc1ccc(N2CC3CC2CN3CC2CCCCC2)cc1` (configuration not stated) as the molecule, how does the MIC90 [1] read?
Its MIC90 is 0.452 µM (≈ 0.229 µg/mL).

Which MIC90 [1] does the source give for `NNC(=O)c1ccncc1` [ISONIAZID] here?
Its MIC90 is 0.277 µM (≈ 0.038 µg/mL).

With `O=c1nc(N2CCN(CC3CCCCC3)CC2)sc2c([N+](=O)[O-])cc(C(F)(F)F)cc12` [MACOZINONE] as the molecule, how does the MIC90 [1] read?
Its MIC90 is < 0.035 µM.

Which MIC90 [1] does the source give for `CO[C@H]1/C=C/O[C@@]2(C)Oc3c(C)c(O)c4c(O)c(c(/C=N/N5CCN(C)CC5)c(O)c4c3C2=O)NC(=O)/C(C)=C\C=C\[C@H](C)[C@H](O)[C@@H](C)[C@@H](O)[C@@H](C)[C@H](OC(C)=O)[C@@H]1C` [RIFAMPIN] here?
The MIC90 was 0.038 µM (≈ 0.0313 µg/mL).

With `CCc1nc2ccc(Cl)cn2c1C(=O)NCc1ccc(N2CCC(c3ccc(OC(F)(F)F)cc3)CC2)cc1` [TELACEBEC] as the molecule, how does the MIC90 [1] read?
The MIC90 was < 0.035 µM.

And the CC50 at 72 h [5]?
Its CC50 at 72 h is > 100 µM.
